From patent US20250313546A1, “NUCLEIC ACID BINDERS” (UNIVERSITY OF STRATHCLYDE, priority 2022, published 2025)
Converted amounts (≈) assume the structure as drawn.

How the values were obtained:
[1] = tested on: Escherichia coli (ATCC 25922); assay: Antibacterial MIC, broth microdilution (CLSI); type: cell-based; conditions: Escherichia coli, ATCC25922; read-out: MIC80 E. coli
C. neoformans (F10025) = conditions: Cryptococcus neoformans, read-out: MIC99 C. neoformans
[2] = tested on: SARS-CoV-2 (hCoV-19/Australia/VIC01/2020); assay: SARS-CoV-2 microplaque inhibition assay in Vero-E6 cells; type: cell-based; conditions: Severe acute respiratory syndrome coronavirus 2, Vero C1008; plaque inhibition, Vero-E6 cells; read-out: IC50 SARS-CoV-2
[3] = tested on: A. fumigatus A1160 (MFIG001); conditions: Aspergillus fumigatus, read-out: MIC99 A. fumigatus A1160
[4] = tested on: Candida glabrata (ACPF3309); conditions: for MIC99: Nakaseomyces glabratus, read-out: MIC99 Candida glabrata; for C. glabrata Selectivity Indices, Group: Alkyl Amidines and NH Pyrroles
Protocol: (§2) The Minimum Inhibitory Concentration (MIC, at 99% inhibition) of the compounds was determined using the broth microdilution method as recommended by EUCAST (EUCAST Definitive Document E.DEF 9.3.2, Method for the determination of broth dilution minimum inhibitory concentrations of antifungal agents for conidia forming moulds and EUCAST Definitive Document E.DEF 7.3.2 Method for the determination of broth dilution minimum inhibitory concentrations of antifungal agents for yeasts).

C. albicans (ATCC 90028) = conditions: Candida albicans, ATCC90028, read-out: MIC99 C. albicans
Protocol: as §2

[5] = tested on: Rhizopus arrhizus (NEQAS12.35321); conditions: read-out: MIC99 Rhizopus arrhizus
[6] = tested on: Enterococcus faecalis (ATCC 51299); assay: Antibacterial MIC, broth microdilution (CLSI); type: cell-based; conditions: for MIC80: Enterococcus faecalis, ATCC51299, read-out: MIC80 E. faecalis
[7] = tested on: Scedosporium prolificans (F2746); conditions: Lomentospora prolificans, read-out: MIC99 Scedosporium prolificans
Protocol: as §2

Candida auris (H.17.157) = conditions: for MIC99: Candidozyma auris, read-out: MIC99 Candida auris
[8] = tested on: Staphylococcus aureus (ATCC 43300); assay: Antibacterial MIC, broth microdilution (CLSI); type: cell-based; conditions: for MIC80: Staphylococcus aureus, ATCC43300, read-out: MIC80 S. aureus; for S. aureus Selectivity Indices, Group: Alkyl Amidines and NH Pyrroles
[9] = tested on: Human rhinovirus (HRV-14); assay: Viral ToxGlo assay, Hela Ohio cells; type: cell-based; conditions: M-HeLa, 72 h
T. evansi AntTat 3/3 = assay: Resazurin-based (Alamar blue) drug sensitivity assay; conditions: read-out: IC50 T. evansi
T. equiperdum = assay: as above; conditions: Trypanosoma equiperdum, read-out: IC50 T. equiperdum
Influenza (H1N1) = assay: Accelerated Viral Neuraminidase Inhibition Assay (AVINA), A549 cells; type: cell-based; conditions: Influenza A virus, 72 h
[10] = tested on: Genomic double stranded DNA (salmon); assay: Fluorescence intercalator displacement (FID) assay, SYBR-safe probe; conditions: 20 μM compound, 30° C., lower % = stronger binding
Method in brief: (§1)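 Probe displacement was measured at 30 °C in 1 mM phosphate pH 7.4 containing SybrSafe (12500-fold dilution), 3.76 ng/mL nucleic acid (salmon dsDNA or polyAU dsRNA) and 20 μM compound. Fluorescence loss is normalised between probe-only and probe-plus-nucleic-acid controls.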

[11] = tested on: PolyAU double stranded RNA; assay: as above; conditions: 20 μM compound, 30° C., lower % = stronger binding
Method in brief: as §1

[12] = tested on: human respiratory syncytial virus (RSV A2); assay: Viral ToxGlo assay, Hep-2 cells; type: cell-based; conditions: 72 h
[13] = SI, IC50 (μM)/MIC99 (μg/mL), HEK293 cytotoxicity
[14] = SI, IC50 (μM)/MIC80 (μM), HEK293 cytotoxicity
[15] = SI, IC50 (μM)/MIC80 (μM), HEK293 cytotoxicity, numeric value

C/N=C(/CCNC(=O)c1cc(NC(=O)c2cc(NC(=O)c3ccc(/C=C/c4nc5ccccc5s4)cc3)cn2C)cn1C)NC [Ia11, 4-(4-((E)-2-(benzo[d]thiazol-2-yl)vinyl)benzamido)-1-methyl-N-(1-methyl-5-(((Z)-3-(methylamino)-3-(methylimino)propyl)carbamoyl)-1H-pyrrol-3-yl)-1H-pyrrole-2-carboxamide]
MIC80 [1]: > 100 µM
MIC99 (C. neoformans (F10025)): < 5 µg/mL
IC50 [2]: 8000 to 32000 nM
MIC99 [3]: 5 to 25 µg/mL (≈ 8.03 to 40.1 µM)
MIC99 [4]: < 5 µg/mL
MIC99 (C. albicans (ATCC 90028)): 5 to 25 µg/mL (≈ 8.03 to 40.1 µM)
MIC99 [5]: 5 to 25 µg/mL (≈ 8.03 to 40.1 µM)
MIC80 [6]: > 100 µM
MIC99 [7]: 5 to 25 µg/mL (≈ 8.03 to 40.1 µM)
MIC99 (Candida auris (H.17.157)): > 50 µg/mL
MIC80 [8]: 5 to 25 µM (≈ 3.11 to 15.6 µg/mL)

Cn1cc(NC(=O)c2ccc(/C=C/c3ccc4nonc4c3)cc2)cc1C(=O)Nc1c[nH]c(C(=O)NCCC(=N)N)c1 [IIIa3, (E)-N-(5-((3-amino-3-iminopropyl)carbamoyl)-1H-pyrrol-3-yl)-4-(4-(2-(benzo[c][1,2,5]oxadiazol-5-yl)vinyl)benzamido)-1-methyl-1H-pyrrole-2-carboxamide]
MIC80 [1]: > 100 µM
inhibition at 20 µM [9]: 25 to 50%
IC50 (T. evansi AntTat 3/3): 10 to 100 nM
MIC99 (C. neoformans (F10025)): < 5 µg/mL
MIC99 [3]: 5 to 25 µg/mL (≈ 8.84 to 44.2 µM)
MIC99 [4]: < 5 µg/mL
C. glabrata Selectivity Indices, Group [4, 13]: B (Group B: 12 < SI <= 20)
IC50 (T. equiperdum): 10 to 100 nM
inhibition at 20 µM (Influenza (H1N1)): > 50%
% Normalised Fluorescence with gDNA [10]: 27%
% Normalised Fluorescence with polyAU RNA [11]: 3%
MIC99 [5]: > 50 µg/mL
MIC80 [6]: 5 to 25 µM (≈ 2.83 to 14.1 µg/mL)
MIC99 (Candida auris (H.17.157)): > 50 µg/mL
inhibition at 20 µM [12]: > 50%
S. aureus Selectivity Indices, Group [8, 14]: B (Group B: 3 < SI <= 5)
MIC80 [8]: 5 to 25 µM (≈ 2.83 to 14.1 µg/mL)

N=C(N)CCNC(=O)c1cc(NC(=O)c2cc(NC(=O)c3ccc(/C=C/c4cnc5ccccc5c4)cc3)c[nH]2)c[nH]1 [IIIa6, (E)-N-(3-amino-3-iminopropyl)-4-(4-(4-(2-(quinolin-3-yl)vinyl)benzamido)-1H-pyrrole-2-carboxamido)-1H-pyrrole-2-carboxamide]
MIC80 [1]: 25 to 100 µM (≈ 14 to 56.1 µg/mL)
inhibition at 20 µM [9]: > 50%
IC50 (T. evansi AntTat 3/3): 10 to 100 nM
MIC99 (C. neoformans (F10025)): < 5 µg/mL
MIC99 [3]: 5 to 25 µg/mL (≈ 8.92 to 44.6 µM)
MIC99 [4]: < 5 µg/mL
C. glabrata Selectivity Indices, Group [4, 13]: D (Group D: SI > 50)
C. glabrata Selectivity Index (SI) ([4]; SI, IC50 (μM)/MIC99 (μg/mL), HEK293 cytotoxicity, numeric value): 109
IC50 (T. equiperdum): < 10 nM
inhibition at 20 µM (Influenza (H1N1)): > 50%
% Normalised Fluorescence with gDNA [10]: 18%
% Normalised Fluorescence with polyAU RNA [11]: 29%
MIC99 [5]: 25 to 50 µg/mL (≈ 44.6 to 89.2 µM)
MIC80 [6]: < 5 µM
E. faecalis Selectivity Indices, Group ([6]; SI, IC50 (μM)/MIC80 (μM), HEK293 cytotoxicity, Alkyl Amidines and NH Pyrroles): D (D: SI > 10)
E. faecalis Selectivity Index (SI) [6, 15]: 14
MIC99 (Candida auris (H.17.157)): 5 to 25 µg/mL (≈ 8.92 to 44.6 µM)
C. auris Selectivity Indices, Group (Candida auris (H.17.157); SI, IC50 (μM)/MIC99 (μg/mL), HEK293 cytotoxicity, Alkyl Amidines and NH Pyrroles): D (Group D SI > 3)
inhibition at 20 µM [12]: > 50%
S. aureus Selectivity Indices, Group [8, 14]: D (D: SI > 10)
S. aureus Selectivity Index (SI) [8, 15]: 14
MIC80 [8]: < 5 µM
